Counter-ions that a name gives are not always drawn.
Columns and labels:
[1] = biological target: T1, Recombinant human integrin ανβ1 (Homo sapiens, UniProt P05556+P06756); test: Solid Phase Receptor Assay (SPRA) for ανβ1 function; type: binding; settings: for IC50: plate-bound human fibronectin, read-out: αvβ1 SPRA IC50
T1 construct: purchased R&D Systems 6579-AV
Protocol: B. Solid Phase Receptor Assay (SPRA) for ανβ1 Function
Wells were washed 3 times with 150 μL TBS+ and then 150 μL of blocking buffer (TBS+ with 1% bovine serum albumin, Sigma A7906) was added. The plate was incubated for 1 hr at 37° C. and then washed 3× with TBS+ buffer. […] Compounds were diluted to 20 μM and 1 μL was added to each well of the plate according to a standard template with each sample repeated in triplicate. After incubation for two hours at room temperature, the plate was washed 3 with 150 μL of TBS+ buffer. To each well, 50 μL of biotinylated anti-αν antibody (R&D Systems, BAF1219) at 1 μg/mL in TBS+/0.1% BSA were added and the plate covered and incubated for 1 hr at room temperature. After washing the plate 3× with 150 μL of TBS+ buffer, 50 μL of streptavidin-conjugated horseradish peroxidase (R&D Systems, DY998) diluted in TBS+ blocking buffer were added to the wells and the plate incubated for 20 min at room temperature. The plate was washed 3× with TBS+ buffer followed by 50 μL of TMB substrate (Sigma, T4444) added to each well in the dark and the plate incubated for 25 min at room temperature. 25 μL of 1.0 M phosphoric acid was added as a stop solution and the plates were read at 450 nm using a Spectramax plate reader.

[2] = biological target: T2, Recombinant human integrin ανβ8 (Homo sapiens, UniProt P06756+P26012); test: Solid Phase Receptor Assay (SPRA) for ανβ8 function; type: binding; settings: for IC50: plate-bound human LAP, read-out: αvβ8 SPRA IC50
T2 construct: purchased R&D Systems 4135-AV
T2 sequence (P06756 31-992 limits assumed): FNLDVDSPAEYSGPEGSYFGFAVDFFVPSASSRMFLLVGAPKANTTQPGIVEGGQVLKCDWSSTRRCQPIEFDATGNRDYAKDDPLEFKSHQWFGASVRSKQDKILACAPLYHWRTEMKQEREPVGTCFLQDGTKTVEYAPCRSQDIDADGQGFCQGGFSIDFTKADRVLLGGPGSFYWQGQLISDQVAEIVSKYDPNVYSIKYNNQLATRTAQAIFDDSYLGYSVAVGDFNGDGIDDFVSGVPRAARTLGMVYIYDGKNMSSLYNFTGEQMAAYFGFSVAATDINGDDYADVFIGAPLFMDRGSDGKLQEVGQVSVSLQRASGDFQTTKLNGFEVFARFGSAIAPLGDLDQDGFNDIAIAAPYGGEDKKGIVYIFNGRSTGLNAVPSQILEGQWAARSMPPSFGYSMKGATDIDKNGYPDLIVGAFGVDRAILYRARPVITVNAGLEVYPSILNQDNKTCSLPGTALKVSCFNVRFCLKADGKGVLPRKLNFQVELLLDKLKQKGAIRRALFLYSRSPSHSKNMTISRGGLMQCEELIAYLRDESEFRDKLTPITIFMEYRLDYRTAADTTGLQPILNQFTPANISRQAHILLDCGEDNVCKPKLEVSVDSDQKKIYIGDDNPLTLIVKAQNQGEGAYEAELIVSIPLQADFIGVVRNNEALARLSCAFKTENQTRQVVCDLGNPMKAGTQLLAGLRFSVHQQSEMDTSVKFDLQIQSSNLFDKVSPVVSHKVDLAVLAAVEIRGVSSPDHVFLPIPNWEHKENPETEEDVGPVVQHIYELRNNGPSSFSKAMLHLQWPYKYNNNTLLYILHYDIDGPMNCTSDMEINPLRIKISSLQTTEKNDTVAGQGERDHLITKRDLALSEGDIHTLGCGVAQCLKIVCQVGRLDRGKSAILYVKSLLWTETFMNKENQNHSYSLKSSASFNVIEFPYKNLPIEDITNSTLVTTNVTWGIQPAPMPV
T2 sequence (P26012 43-684 limits assumed): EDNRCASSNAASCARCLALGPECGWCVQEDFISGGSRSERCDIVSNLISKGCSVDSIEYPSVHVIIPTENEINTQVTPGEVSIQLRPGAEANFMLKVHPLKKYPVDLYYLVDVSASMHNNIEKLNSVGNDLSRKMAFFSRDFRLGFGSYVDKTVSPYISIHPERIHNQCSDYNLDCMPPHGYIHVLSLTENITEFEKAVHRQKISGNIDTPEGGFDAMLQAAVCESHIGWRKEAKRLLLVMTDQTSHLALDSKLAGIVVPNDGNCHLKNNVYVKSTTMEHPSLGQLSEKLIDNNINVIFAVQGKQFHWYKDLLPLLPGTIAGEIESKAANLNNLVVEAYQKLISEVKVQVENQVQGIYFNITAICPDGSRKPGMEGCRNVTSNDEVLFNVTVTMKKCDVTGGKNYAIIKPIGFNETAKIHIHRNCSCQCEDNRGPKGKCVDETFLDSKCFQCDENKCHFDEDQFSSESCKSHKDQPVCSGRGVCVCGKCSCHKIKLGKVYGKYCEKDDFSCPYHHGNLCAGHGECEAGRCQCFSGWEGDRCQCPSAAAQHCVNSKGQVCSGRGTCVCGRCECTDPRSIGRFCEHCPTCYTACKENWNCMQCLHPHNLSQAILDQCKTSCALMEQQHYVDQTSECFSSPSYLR
Protocol: F. Solid Phase Receptor Assay (SPRA) for ανβ8 Function
Wells were washed 3 times with 150 μL TBS+ and then 150 μL of blocking buffer (TBS+ with 1% bovine serum albumin, Sigma A7906) was added. The plate was incubated for 1 hr at 37° C. and then washed 3× with TBS+. […] Compounds were diluted to 20 μM and 1 μL was added to each well of the plate according to a standard template with each sample repeated in triplicate. After incubation for two hours at room temperature, the plate was washed 3× with 150 μL of TBS+. To each well, 50 μL of biotinylated anti-αν antibody (R&D Systems, BAF1219) at 1 μg/mL in TBS+/0.1% BSA were added and the plate was covered and incubated for 1 hr at room temperature. After washing the plate 3× with 150 μL. of TBS+ buffer, 50 μL of streptavidin-conjugated horseradish peroxidase (R&D Systems, DY998) diluted in TBS+ blocking buffer were added to the wells and the plate incubated for 20 min at room temperature. The plate was washed 3× with TBS+ followed by 50 μL of TMB substrate (Sigma T4444) added to each well in the dark and the plate incubated for 10 min at room temperature. 25 μL of 1.0 M phosphoric acid was added as a stop solution and the plates were read at 450 nm using a Spectramax plate reader.

T1 sequence (P06756 31-992 limits assumed): as the sequence (P06756 31-992 limits assumed) above
T1 sequence (P05556 21-728 limits assumed): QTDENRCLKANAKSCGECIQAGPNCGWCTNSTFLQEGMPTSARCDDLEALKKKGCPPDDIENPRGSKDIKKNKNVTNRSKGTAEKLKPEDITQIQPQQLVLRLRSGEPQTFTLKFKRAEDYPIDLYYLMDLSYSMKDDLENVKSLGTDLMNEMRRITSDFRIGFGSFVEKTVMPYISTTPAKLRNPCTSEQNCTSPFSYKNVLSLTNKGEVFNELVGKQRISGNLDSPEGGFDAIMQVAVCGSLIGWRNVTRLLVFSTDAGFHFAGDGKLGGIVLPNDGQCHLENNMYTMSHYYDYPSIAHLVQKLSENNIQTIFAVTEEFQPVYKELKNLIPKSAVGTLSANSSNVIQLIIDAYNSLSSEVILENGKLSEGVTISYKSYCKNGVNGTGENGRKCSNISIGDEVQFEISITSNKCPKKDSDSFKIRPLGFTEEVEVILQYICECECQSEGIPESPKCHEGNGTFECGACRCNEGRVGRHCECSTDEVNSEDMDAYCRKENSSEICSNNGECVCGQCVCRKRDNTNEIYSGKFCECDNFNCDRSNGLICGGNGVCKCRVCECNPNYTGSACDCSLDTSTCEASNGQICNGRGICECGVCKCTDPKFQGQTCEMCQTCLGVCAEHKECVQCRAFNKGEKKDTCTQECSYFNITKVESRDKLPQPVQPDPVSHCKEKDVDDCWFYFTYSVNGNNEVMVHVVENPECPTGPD

Row | SMILES | IC50 [1] | IC50 [2] | inhibitory activity at ανβ1 (in words) [1] | inhibitory activity at ανβ8 (in words) [2]
1 | Cn1nc(CC(CC(=O)O)c2cc(Br)cc(C(C)(C)C)c2)cc1OCCc1ccc2c(n1)NCCC2 (stereo not shown) [Example 16, 3-(3-bromo-5-tert-butyl-phenyl)-4-(1-methyl-5-(2-(5,6,7,8-tetrahydro-1,8-naphthyridin-2-yl)ethoxy)-1H-pyrazol-3-yl)butanoic Acid] | 3 nM | 7.8 nM | – | –
2 | Cn1nc(CC(CC(=O)O)c2cc(F)cc(C(C)(C)C)c2)cc1OCCc1ccc2c(n1)NCCC2 (stereo not shown) [Example 38, 3-(3-(tert-butyl)-5-fluorophenyl)-4-(1-methyl-5-(2-(5,6,7,8-tetrahydro-1,8-naphthyridin-2-yl)ethoxy)-1H-pyrazol-3-yl)butanoic Acid] | 4.5 nM | 140 nM | – | –
3 | COc1ccc(C(=O)O)cc1C(CC(=O)O)Cc1cc(OCCc2ccc3c(n2)NCCC3)n(C)n1 (stereo not shown) [Example 48, 3-(1-carboxy-3-(1-methyl-5-(2-(5,6,7,8-tetrahydro-1,8-naphthyridin-2-yl)ethoxy)-1H-pyrazol-3-yl)propan-2-yl)-4-methoxybenzoic Acid Trifluoroacetate] | 19 nM | 92 nM | – | –
4 | COc1ccc(C(F)(F)F)cc1C(CC(=O)O)Cc1cc(OCCc2ccc3c(n2)NCCC3)n(C)n1 (stereo not shown) [Example 13, 3-(2-methoxy-5-(trifluoromethyl)phenyl)-4-(1-methyl-5-(2-(5,6,7,8-tetrahydro-1,8-naphthyridin-2-yl)ethoxy)-1H-pyrazol-3-yl)butanoic Acid Trifluoroacetate] | 5.8 nM | 26 nM | – | –
5 | COCC1(c2cc(Cl)cc(C(CC(=O)O)Cc3cc(OCCc4ccc5c(n4)NCCC5)n(C)n3)c2)CCOCC1 (stereo not shown) [Example 29, 3-(3-chloro-5-(4-(methoxymethyl)tetrahydro-2H-pyran-4-yl)phenyl)-4-(1-methyl-5-(2-(5,6,7,8-tetrahydro-1,8-naphthyridin-2-yl)ethoxy)-1H-pyrazol-3-yl)butanoic Acid] | 9.4 nM | 9.5 nM | – | –
6 | COc1ccc(C(C)(C)C)cc1C(CC(=O)O)Cc1cc(OCCc2ccc3c(n2)NCCC3)n(C)n1 (stereo not shown) [Example 32, 3-(5-(tert-butyl)-2-methoxyphenyl)-4-(1-methyl-5-(2-(5,6,7,8-tetrahydro-1,8-naphthyridin-2-yl)ethoxy)-1H-pyrazol-3-yl)butanoic Acid] | 0.9 nM | 87 nM | high inhibitory activity | low activity
7 | Cn1nc(CC(CC(=O)O)c2cc(Br)cc(C3(C(F)F)CC3)c2)cc1OCCc1ccc2c(n1)NCCC2 (stereo not shown) [Example 19, 3-(3-bromo-5-(1-(difluoromethyl)cyclopropyl)phenyl)-4-(1-methyl-5-(2-(5,6,7,8-tetrahydro-1,8-naphthyridin-2-yl)ethoxy)-1H-pyrazol-3-yl)butanoic Acid] | 6.3 nM | 8.5 nM | – | –
8 | Cn1nc(CC(CC(=O)O)c2ccc(F)c(Br)c2)cc1OCCc1ccc2c(n1)NCCC2 (stereo not shown) [Example 5, 3-(3-bromo-4-fluorophenyl)-4-(1-methyl-5-(2-(5,6,7,8-tetrahydro-1,8-naphthyridin-2-yl)ethoxy)-1H-pyrazol-3-yl)butanoic Acid] | 11 nM | 16 nM | – | –
9 | Cn1nc(CC(CC(=O)O)c2cc(C(C)(C)C)ccc2Cl)cc1OCCc1ccc2c(n1)NCCC2 (stereo not shown) [Example 43, 3-(5-(tert-butyl)-2-chlorophenyl)-4-(1-methyl-5-(2-(5,6,7,8-tetrahydro-1,8-naphthyridin-2-yl)ethoxy)-1H-pyrazol-3-yl)butanoic Acid Trifluoroacetate] | 7.3 nM | 88 nM | – | –
10 | Cn1nc(CC(CC(=O)O)c2cc(C(C)(C)C)cc(C(C)(C)C)c2)cc1OCCc1ccc2c(n1)NCCC2 (stereo not shown) [Example 18, 3-(3,5-di-tert-butylphenyl)-4-[1-methyl-5-[2-(5,6,7,8-tetrahydro-1,8-naphthyridin-2-yl)ethoxyl]pyrazol-3-yl]butanoic Acid] | 1.4 nM | 85 nM | – | –
